According to the supplement of paper PMC10878532, “Sperm Toolbox—A selection of small molecules to study human spermatozoa” (PLOS ONE, 2024):
Where a name gives a salt, the structure may show the parent alone.

Key:
HeLa [1] = assay: Cell Painting percent induction (share of features beyond 2 z-scores vs DMSO); higher = more features changed / larger toxic effect; extreme values may be limits of the assay; details: incubation time: 24h incubation
human spermatozoa [2] = assay: progressively motile sperm, percent change vs DMSO (non-capacitating); higher = more of the measured sperm population than DMSO, for viability, fewer PI-positive (dead) cells than DMSO; extreme values may be limits of the assay
human spermatozoa [3] = assay: acrosome-reacted (PNA+) sperm after agonist cocktail, percent change vs DMSO (capacitating); higher = more of the measured sperm population than DMSO, for viability, fewer PI-positive (dead) cells than DMSO; details: incubation time: 3h, capacitating + agonist cocktail 1h
human spermatozoa [4] = assay: progressively motile sperm, percent change vs DMSO (capacitating); higher = more of the measured sperm population than DMSO, for viability, fewer PI-positive (dead) cells than DMSO; details: incubation time: 30min incubation
human spermatozoa [5] = assay: total motile sperm, percent change vs DMSO (non-capacitating); higher = more of the measured sperm population than DMSO, for viability, fewer PI-positive (dead) cells than DMSO
human spermatozoa [6] = assay: viability fold change, 1 - (PI-positive fraction / DMSO median); higher = more of the measured sperm population than DMSO, for viability, fewer PI-positive (dead) cells than DMSO; details: incubation time: 3h, non-capacitating
HeLa [7] = assay: HeLa toxicity: nuclei-count effect normalised to DMSO (DMSO = 0); higher = more features changed / larger toxic effect; details: incubation time: 24h incubation
HepG2 = HepG2 toxicity (resazurin), effect normalised to DMSO (DMSO = 0); higher = more features changed / larger toxic effect; details: incubation time: 70h incubation
human spermatozoa [8] = assay: change in acrosome-reacted (PNA+) sperm vs DMSO, no agonist (capacitating); higher = more of the measured sperm population than DMSO, for viability, fewer PI-positive (dead) cells than DMSO; details: incubation time: 3h
human spermatozoa [9] = assay: hyperactivated motile sperm, percent change vs DMSO (capacitating); higher = more of the measured sperm population than DMSO, for viability, fewer PI-positive (dead) cells than DMSO; details: incubation time: 30min incubation
[10] = incubation time: 10min incubation, 9.99 µM
[11] = incubation time: 10min incubation, 29.9 µM
[12] = incubation time: 3h incubation, 9.99 µM
[13] = incubation time: 3h incubation, 29.9 µM
[14] = incubation time: 6h incubation, 9.99 µM
[15] = incubation time: 6h incubation, 29.9 µM
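For progressively motile sperm, percent change vs DMSO (non-capacitating) in this document: pooled live human sperm from at least 3 donors, tracked by automated microscopy in 0.5 s time-lapse movies, compounds at 10 and 30 µM, versus median of 16 DMSO wells per plate.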
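For total motile sperm, percent change vs DMSO (non-capacitating) in this document: sperm pooled from at least 3 donors, tracked in 0.5 s time-lapse movies by automated microscopy after 10 min, 3 h or 6 h with compound at 10 or 30 µM.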

Row | SMILES | Cell Painting percent induction (HeLa [1]; 9.99 µM) [%] | Cell Painting percent induction (HeLa [1]; 29.9 µM) [%] | progressively motile sperm (human spermatozoa [2]; [10]) [%] | progressively motile sperm (human spermatozoa [2]; [11]) [%] | progressively motile sperm (human spermatozoa [2]; [12]) [%] | progressively motile sperm (human spermatozoa [2]; [13]) [%] | progressively motile sperm (human spermatozoa [2]; [14]) [%] | progressively motile sperm (human spermatozoa [2]; [15]) [%] | acrosome-reacted (human spermatozoa [3]; 9.99 µM) [%] | acrosome-reacted (human spermatozoa [3]; 29.9 µM) [%] | progressively motile sperm (human spermatozoa [4]; 9.99 µM) [%] | progressively motile sperm (human spermatozoa [4]; 29.9 µM) [%] | total motile sperm (human spermatozoa [5]; [10]) [%] | total motile sperm (human spermatozoa [5]; [11]) [%] | total motile sperm (human spermatozoa [5]; [12]) [%] | total motile sperm (human spermatozoa [5]; [13]) [%] | total motile sperm (human spermatozoa [5]; [14]) [%] | total motile sperm (human spermatozoa [5]; [15]) [%] | viability fold change (human spermatozoa [6]; 9.99 µM) | viability fold change (human spermatozoa [6]; 29.9 µM) | HeLa toxicity: nuclei-count effect normalised (HeLa [7]; 9.99 µM) [%] | HeLa toxicity: nuclei-count effect normalised (HeLa [7]; 29.9 µM) [%] | HepG2 toxicity (HepG2; 10 µM) [%] | HepG2 toxicity (HepG2; 30 µM) [%] | change in acrosome-reacted (human spermatozoa [8]; 9.99 µM) [%] | change in acrosome-reacted (human spermatozoa [8]; 29.9 µM) [%] | hyperactivated motile sperm (human spermatozoa [9]; 9.99 µM) [%] | hyperactivated motile sperm (human spermatozoa [9]; 29.9 µM) [%]
1 | c1ccc2c(c1)SCc1c-2[nH]c2ccccc12 | 30.2 | 46 | -81.3 | -99.9 | -74.4 | -100 | -76 | -99.9 | 3.76 | -34.5 | -60.3 | -95.6 | -62 | -88.1 | -66.5 | -92.9 | -54.6 | -91.4 | 0.409 | 0.115 | 83.9 | 99.3 | 10.5 | 102 | 0.192 | 0.819 | -56.3 | -84.3
2 | CC1(C)CC=C(c2ccccc2)c2cc(/C=C/c3ccc(C(=O)O)cc3)ccc21 | 0 | 0 | 8.04 | 5.98 | 18.8 | 9.32 | 6.74 | 13 | 10.6 | 7.54 | -4.62 | -9.29 | 2.52 | 2.83 | 0.861 | 0.353 | -4.19 | 0.705 | -1.22 | -0.368 | 6.08 | 8.35 | 0.925 | -8.39 | 1.18 | 1.38 | -3.7 | -30.1
3 | Cc1ccc(S(=O)(=O)c2ccc([N+](=O)[O-])o2)cc1 | 18.5 | 9.8 | -30.4 | -44.1 | -96.9 | -100 | -99.3 | -100 | 81 | 103 | -9.29 | -10.6 | -0.166 | -5.06 | -76.8 | -91.9 | -86.5 | -92.7 | -1.25 | -1.57 | 83 | 88.8 | 103 | 103 | 3.49 | 4.92 | 3.4 | 0.123
4 | CCCCCCCCOc1ccc(-c2noc([C@@H]3CCCN3C(=N)N)n2)cc1C(F)(F)F | 15.4 | 6.63 | 19.2 | -91.9 | -94.9 | -100 | -99.9 | -99.9 | 114 | 138 | -6.84 | -99.7 | 0.514 | -52.9 | -72.1 | -92.8 | -86.2 | -93.7 | -1.83 | -2.7 | 35.1 | 82.8 | 8.34 | 102 | 46.2 | 70.7 | -41.8 | -89.2
5 | CN(c1ccccc1CNc1nc(Nc2ccc3c(c2)CC(=O)N3)ncc1C(F)(F)F)S(C)(=O)=O | 8.65 | 17.7 | 20.2 | 16.8 | 29.9 | 21.7 | 40.3 | 24.4 | -10.6 | -8.83 | -2.37 | -3.01 | -4.4 | -6.03 | -7.55 | -13.4 | -11 | -16.3 | -1.76 | -1.35 | 81.5 | 90.7 | 95.1 | 90.2 | 0.291 | 0.085 | 41.5 | -30.2
6 | COc1cc(N2CCOCC2)ccc1Nc1ncc(F)c(Nc2ccccc2NS(C)(=O)=O)n1 | 0.324 | 14.1 | -27.7 | -60.9 | -32.8 | -74.5 | -27 | -69.7 | -20.4 | -26.8 | -10.8 | -4.79 | -2.71 | -11.9 | -6.38 | -20.1 | -5.57 | -17.4 | 0.0946 | 0.0988 | 12 | 70.3 | 11.9 | 14 | 0.77 | -0.256 | 7.89 | -19.1
7 | CCc1cc(Nc2nccc(-c3c(-c4ccc(OC)c(C(=O)Nc5c(F)cccc5F)c4)nc4ccccn34)n2)c(OC)cc1N1CCC(N2CCN(S(C)(=O)=O)CC2)CC1 | 0 | 0.036 | 4.67 | 2.77 | 36.3 | 31.8 | 50.7 | 33.6 | -8.69 | 2.76 | -19.6 | -24.3 | -4.19 | -0.876 | -8.85 | -6.8 | -6.63 | -13 | 0.344 | 0.176 | 4.68 | -3.87 | 3.43 | -1.34 | 0.271 | -0.0593 | -15.3 | -19
8 | O=C(c1cccs1)c1no[n+]([O-])c1C(=O)c1cccs1 | 0.216 | 14.3 | -17 | -39.6 | -29.1 | -78.3 | -50.4 | -91.5 | -24.1 | -23.9 | 0.304 | -15.7 | 1.03 | 2.49 | -13.1 | -40.1 | -30.5 | -54.9 | -0.427 | -1.21 | 36.5 | 82 | 103 | 103 | 1.47 | 2.4 | -32.4 | -81.3
9 | Nc1nonc1C(=O)c1cccc(OCc2nc3ccccc3[nH]2)c1 [ASI-8] | 0.036 | 0.072 | -2.86 | -2.99 | -14.7 | -20.6 | -17.4 | -29.2 | -14.8 | -14.9 | 11.1 | 6.99 | 3.13 | 2.79 | 1.2 | -0.414 | 3.96 | 1.2 | -0.34 | -0.223 | -5.48 | 1.8 | 7.95 | -4.37 | 0.432 | 0.568 | -38 | -39.8
10 | NC(=O)Nc1cc(-c2cccc(F)c2)sc1C(=O)N[C@H]1CCCNC1 [AZD 7762 hydrochloride] | 17 | 11 | -49.3 | -57.6 | -35.4 | -48.7 | -30.8 | -49.2 | -44.6 | -44 | -19.7 | -30.7 | -11.3 | -17.4 | -10.7 | -22.4 | -13.2 | -23.1 | -0.829 | -1.22 | 80.1 | 76.8 | 101 | 101 | 0.07 | 1.03 | -57.9 | -72
11 | CCCCC(CC)C/N=C(\N)N/C(N)=N/CCCCCC/N=C(\N)N/C(N)=N/CC(CC)CCCC (stereo unspecified) [Alexidine dihydrochloride] | 4.11 | 13.2 | -63.3 | -99.9 | -99.9 | -100 | -100 | -100 | 148 | 214 | -95.3 | -100 | -25.4 | -91.3 | -92.5 | -89.6 | -92.8 | -89.2 | -2.59 | -3.31 | 82.5 | 57.3 | 89.8 | 103 | 65.4 | 86.5 | -81.6 | -86.5
12 | COc1cc2nc(N(C)CCCNC(=O)C3CCCO3)nc(N)c2cc1OC (stereo unspecified) [Alfuzosin] | 0 | 0 | 0.477 | -1.83 | 14.5 | 16.4 | 16.7 | 20.9 | -3.12 | 0.779 | 16 | 9.67 | -4.58 | -4.17 | -0.419 | -6.01 | -5.29 | -6.7 | -0.036 | -0.0945 | 5.08 | 0.668 | -1.03 | 4.29 | -0.201 | -0.552 | 37.3 | 5.32
13 | CCCCC/C=C\C/C=C\C/C=C\C/C=C\CCCC(=O)NCCO [Anandamide] | 0 | 0 | 0.835 | 4.89 | 8.76 | 18.1 | 15.3 | 17.7 | -2.45 | -3.7 | 5.07 | 5.94 | 0.0733 | 1.31 | -5.97 | 0.46 | -4.78 | -4.35 | -1.03 | -1.89 | 3.27 | 22.7 | 4 | -4.04 | 0.407 | 0.71 | -8.05 | -17.2
14 | Cn1c(=O)c2c(-c3ccccc3)n3c(c2n(C)c1=O)[C@H](c1ccc(Br)o1)Oc1ccc(C(=O)O)cc1-3 [BPO-27] | 0.901 | 0 | 4.77 | 14.7 | 32.6 | 41.5 | 37.8 | 42.7 | 6.48 | 12.2 | -0.551 | -1.51 | -0.595 | -2.15 | 1.67 | -2.1 | 2.71 | -8.78 | -0.786 | -0.502 | -5.61 | -3.14 | 6.74 | -5.25 | 0.114 | -0.202 | 26.2 | 0.866
15 | Oc1c(Cl)cc(Cl)cc1Sc1cc(Cl)cc(Cl)c1O [Bithionol] | 0 | 0.036 | 3.11 | -10.9 | 11.4 | -27.5 | 17.4 | -30.7 | 1.08 | -1.64 | 2.24 | 1.88 | 3.44 | 1.84 | 1.98 | -0.0801 | 2.41 | -5.59 | 0.0494 | 0.376 | -4.61 | 21.5 | 7.02 | 59.3 | 0.572 | 1.65 | 4.13 | 7.86
16 | NC(=O)c1cc(-c2ccc(S(=O)(=O)[C@H]3CC[C@H](Nc4ccc(C(F)(F)F)cn4)CC3)cc2)ccn1 [CCR6 inhibitor 1] | 0.144 | 1.51 | 20.1 | 23 | 25.5 | 9.27 | 37.7 | -18.5 | 47.9 | 31 | 4.84 | -2.5 | -1.18 | -0.388 | -10.1 | -17.5 | -12.7 | -30 | -1.3 | -0.257 | 38.5 | 82.3 | 93.6 | 97.6 | 0.47 | 1.33 | 0.384 | -27
17 | O=C(O)c1ccc(/C=C2/SC(=S)N(c3cccc(C(F)(F)F)c3)C2=O)cc1 [CTFRinh-172] | 1.51 | 2.67 | 3.85 | -3.67 | 4.25 | 3.7 | -2.41 | 3.06 | 2.51 | 5.75 | -6.92 | -8.59 | -0.0195 | 0.898 | 0.0108 | -0.0432 | -7.63 | -1.41 | -0.401 | -0.284 | 0.134 | 4.28 | 10.5 | -1.68 | 0.257 | -0.529 | -0.45 | -19.9
